According to patent US20250108027A1, “TOPICAL DELIVERY OF EDTA COMPOSITIONS” (priority 2023, published 2025):
Values after ≈ are worked out from the molar mass of the structure shown.

Legend:
S. epidermidis HC3-CA-1 [1] = test: MIC in combination, checkerboard titration; conditions: in combination with tetracycline
Description: (§3) Microtiter plates were incubated at 37° C. for 24 h and the results were analyzed. Each test included a growth control without addition of any antimicrobials, as well as an uninoculated control column to ensure there was no contamination in the plate. The combination MIC was taken as the concentration where no growth was observed by optical density but the wells immediately adjacent had growth. To determine the MBC, 5 μL aliquots were removed from each well in the 96-well MIC plates above and used to inoculate a new microtiter plate that was filled with Mueller-Hinton media. This new microtiter plate was incubated at 37° C. for 24 h and growth was quantified by measuring the optical density in the wells.
(§4) The potential interaction of the two antimicrobials was determined by the FICI (fractional inhibitory concentration index) and FBCI (fractional bactericidal concentration index).

S. epidermidis HC3-CA-1 [2] = test: MIC in isolation, microbroth dilution; assay type: cell-based
Description: (§1) Microbroth dilution in 96-well microtiter plates was performed on the E. coli and S. epidermidis strains. […] Each test was performed in duplicate. The MIC was determined as the lowest concentration where no growth was observed, but the adjacent wells had growth as determined by optical density.

E. Coli HC1-R2A-1 [3] = test: MBC in combination, checkerboard titration and subculture; conditions: in combination with tetracycline
Description: as §3, §4

E. Coli HC1-R2A-1 [4] = test: MBC in isolation, subculture from MIC plates; assay type: cell-based
Description: (§2) This new microtiter plate was incubated at 37° C. and growth was quantified after 24 h by measuring the optical density in the wells.

S. epidermidis HC3-CA-1 [5] = test: MBC in isolation, subculture from MIC plates; assay type: cell-based
Description: as §2

E. Coli HC1-R2A-1 [6] = conditions: alone, 37° C., 24 h
Description: as §1

S. epidermidis HC3-CA-1 [7] = test: MBC in combination, checkerboard titration and subculture; conditions: in combination with tetracycline
Description: as §3, §4

E. Coli HC1-R2A-1 [8] = test: MIC in combination, checkerboard titration; conditions: in combination with tetracycline
Description: as §3, §4

Row | SMILES | MIC in Combination, T-EDTA (S. epidermidis HC3-CA-1 [1]) [wt %] | MIC in Isolation, T-EDTA (S. epidermidis HC3-CA-1 [2]; alone, 37° C., 24 h) [wt %] | MBC in Combination, T-EDTA (E. Coli HC1-R2A-1 [3]) [wt %] | MBC in Isolation, T-EDTA (E. Coli HC1-R2A-1 [4]; alone) [wt %] | MBC in Isolation, T-EDTA (S. epidermidis HC3-CA-1 [5]; alone) [wt %] | MIC in Isolation, T-EDTA (E. Coli HC1-R2A-1 [6]) [wt %] | MBC in Combination, T-EDTA (S. epidermidis HC3-CA-1 [7]) [wt %] | MIC in Combination, T-EDTA (E. Coli HC1-R2A-1 [8]) [wt %] | MIC (S. epidermidis HC3-CA-1 [2]; Staphylococcus epidermidis, HC3CA1, read-out: MIC in Isolation, Tetracycline, alone, 37° C., 24 h) [µg/mL] | MBC (E. Coli HC1-R2A-1 [4]; Escherichia coli, read-out: MBC in Isolation, Tetracycline, alone) [µg/mL] | MBC (S. epidermidis HC3-CA-1 [5]; Staphylococcus epidermidis, HC3CA1, read-out: MBC in Isolation, Tetracycline, alone) [µg/mL]
1 | O=C([O-])CN(CCN(CC(=O)[O-])CC(=O)[O-])CC(=O)[O-].[Na+].[Na+].[Na+].[Na+] [T-EDTA, tetrasodium EDTA] | 0.015 | 0.0625 | 0.25 | 1 | 4 | 1 | 0.25 | 0.25 |  |  | 
2 | CN(C)[C@@H]1C(O)=C(C(N)=O)C(=O)[C@@]2(O)C(O)=C3C(=O)c4c(O)cccc4[C@@](C)(O)[C@H]3C[C@@H]12 [Tetracycline, tetracycline, reference compound] |  |  |  |  |  |  |  |  | 8 (≈ 18 µM) | 512 (≈ 1150 µM) | 8 (≈ 18 µM)
